Data on two molecules can be found in patent publication US11014898B1, “Benzothiazepine compounds and their use as bile acid modulators” (Albireo AB, priority 2020, dated 2021).

One assay deals with T1, Human IBAT (Homo sapiens, UniProt Q12908).
T1 construct: expressed in transfected cells; cells kept under Puromycin selection
T1 sequence (Q12908 1-348): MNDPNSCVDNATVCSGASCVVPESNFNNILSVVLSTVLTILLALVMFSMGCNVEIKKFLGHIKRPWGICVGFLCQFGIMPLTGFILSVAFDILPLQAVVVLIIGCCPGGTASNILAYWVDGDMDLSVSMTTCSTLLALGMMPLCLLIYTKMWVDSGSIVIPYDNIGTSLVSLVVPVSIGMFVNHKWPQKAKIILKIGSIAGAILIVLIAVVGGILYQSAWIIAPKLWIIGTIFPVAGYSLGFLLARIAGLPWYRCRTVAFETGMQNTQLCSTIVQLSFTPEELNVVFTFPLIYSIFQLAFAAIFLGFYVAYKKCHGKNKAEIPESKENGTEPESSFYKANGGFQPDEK
The assay can be described thus: IBAT (h) assay: 3H-taurocholic acid uptake in human IBAT-overexpressing cells. The assay is classed as cell-based. The note with it: 0.25 μM 3H-taurocholic acid and 5 μM cold taurocholic acid, 20 minutes, read-out: hIBAT IC50. On the procedure: 10,000 cells (Human or Mouse IBAT-overexpressing cells) were seeded in 96-wells plate (Corning CLS3809) in 200 μL MEM-alpha medium (Gibco 12571-063) supplemented with 10% FBS (Gibco 10438026) containing Puromycin (Gibco A1113803) (10 μg/mL) and incubated at 37° C. in 5% CO2 for 48 hours. After incubation, media was decanted from the wells and cells were washed two times with 300 μL of basal MEM-alpha medium (FBS-free). After decanting basal MEM-alpha medium each time, plates were tapped against paper towel to ensure maximum removal of residual media. Test inhibitor dilutions (highest test concentration being 10 μM, 3-fold serial dilution, 10 points) prepared in DMSO (Sigma D2650) were added in incubation mix (maintaining 0.2% final DMSO concentration) containing 0.25 μM 3H-taurocholic acid (ARC ART-1368) and 5 μM of cold taurocholic acid (Sigma T4009). 50 μL of incubation mix containing test inhibitors was then added to the wells (in duplicate) and the plates were incubated for 20 minutes in a CO2 incubator at 37° C. After incubation, the reaction was stopped by keeping the plates on ice water mix for 2-3 minutes and then the incubation mix was aspirated completely from the wells. The wells were washed two times with 250 μL of chilled unlabelled 1 mM taurocholic acid dissolved in HEPES (Gibco 15630080)-buffered (10 mM) HBSS (Gibco 14175079) (pH 7.4). The plates were tapped against a paper towel after every wash to ensure maximum removal of blocking buffer.
100 μL of MicroScint-20 (PerkinElmer 6013621) was added to the wells and kept overnight at room temperature before reading the plates in TopCount NXT™ Microplate Scintillation and Luminescence Counter from PerkinElmer under 3H Test protocol (set at 120 seconds reading time per well).
(§1) All test compounds were provided in powder form at room temperature. 10 mM DMSO stocks of the test compounds were prepared, aliquoted and stored at −20° C. From the 10 mM DMSO stock of the compounds, a 3-fold serial dilution in DMSO was prepared to get a total of 10 dilutions of the test compounds. 0.5 μL of this dilution in DMSO was added to 250 μL of FBS-free basal media containing 3H-taurocholic acid and cold taurocholic acid to prepare the incubation mixture.

The next assay concerns the target T2, Human LBAT (Homo sapiens, UniProt Q14973).
T2 construct: expressed in transfected cells; cells kept under Geneticin selection
T2 sequence (Q14973 1-349): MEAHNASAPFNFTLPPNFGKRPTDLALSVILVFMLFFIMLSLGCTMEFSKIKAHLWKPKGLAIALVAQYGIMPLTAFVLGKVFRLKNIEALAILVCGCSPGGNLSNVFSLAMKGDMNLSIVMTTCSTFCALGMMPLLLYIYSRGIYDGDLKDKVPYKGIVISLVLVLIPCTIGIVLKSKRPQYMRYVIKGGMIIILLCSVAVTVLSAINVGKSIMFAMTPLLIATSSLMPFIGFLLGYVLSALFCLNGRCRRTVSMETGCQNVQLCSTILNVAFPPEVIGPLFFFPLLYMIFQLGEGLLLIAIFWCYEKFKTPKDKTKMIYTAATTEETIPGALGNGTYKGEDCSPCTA
Put plainly: LBAT (h) assay: 3H-taurocholic acid uptake in human LBAT-overexpressing cells. The assay is classed as cell-based. The note with it: 0.3 μM 3H-taurocholic acid and 7.5 μM cold taurocholic acid, 20 minutes, read-out: hLBAT IC50. On the procedure:
20,000 cells (Human or Mouse LBAT-overexpressing cells) were seeded in 96-wells plate (Corning CLS3809) in 100 μL MEM-alpha medium (Gibco 12571-063) supplemented with 10% FBS (Gibco 10438026) containing Geneticin (Gibco 10131-027) (1 mg/mL) and incubated at 37° C. in 5% CO2 for 24 hours. After incubation, media was decanted from the wells and cells were washed two times with 300 μL of basal MEM-alpha medium (FBS-free). After decanting basal MEM-alpha medium each time, plates were tapped against paper towel to ensure maximum removal of residual media. For human LBAT, incubation mix was prepared by adding test inhibitor dilutions (3-fold serial dilution in DMSO (Sigma D2650), 10 points) in MEM-alpha (without FBS) containing 0.3 μM 3H-taurocholic acid (ARC ART-1368) and 7.5 μM cold taurocholic acid (Sigma T4009) (maintaining 0.2% final DMSO concentration). For mouse LBAT, incubation mix was prepared by adding test inhibitor dilutions (3-fold serial dilution in DMSO, 10 points) in MEM-alpha (without FBS) containing 0.3 μM 3H-taurocholic acid and 25 μM cold taurocholic acid maintaining 0.2% final DMSO concentration).
50 μL of incubation mix containing test inhibitors was then added to the wells (in duplicate) and the plates were incubated for 20 minutes in a CO2 incubator at 37° C. After incubation, the reaction was stopped by keeping the plates on ice water mix for 2-3 minutes and then the incubation mix was aspirated completely from the wells. The wells were washed two times with 250 μL of chilled unlabelled 1 mM taurocholic acid dissolved in HEPES (Gibco 15630080)-buffered (10 mM) HBSS (Gibco 14175079) (pH 7.4). The plates were tapped against a paper towel after every wash to ensure maximum removal of blocking buffer.
100 μL of MicroScint-20 (PerkinElmer 6013621) was added to the wells and kept overnight at room temperature before reading the plates in TopCount NXT™ Microplate Scintillation and Luminescence Counter from PerkinElmer under 3H Test protocol (set at 120 seconds reading time per well, with normal plate orientation).
as §1

Regarding `CCCCC1(CCCC)CN(c2ccc(Br)cc2)c2cc(SC)c(OCC(=O)O)cc2S(=O)(=O)C1` [Example 3, 2-((5-(4-bromophenyl)-3,3-dibutyl-7-(methylthio)-1,1-dioxido-2,3,4,5-tetrahydro-1,5-benzothiazepin-8-yl)oxy)acetic Acid], the IC50 (usually the concentration that inhibits the measured activity by half) at Human IBAT is 26 nM; at Human LBAT it was 2820 nM.
For the molecule `CCCCC1(CCCC)CN(c2ccc(O)cc2)c2cc(SC)c(OCC(=O)O)cc2S(=O)(=O)C1` [Example 4, 2-((3,3-dibutyl-5-(4-hydroxyphenyl)-7-(methylthio)-1,1-dioxido-2,3,4,5-tetrahydro-1,5-benzothiazepin-8-yl)oxy)acetic Acid], the IC50 worked out at 15 nM at Human IBAT and 1990 nM at Human LBAT.
